# Earlier results in patent US20080275015A1, “Formulation and Method for Treating Interstitial Cystitis and Related Bladder Conditions” (priority 2007, published 2008).
# Details: oral prescription for interstitial cystitis; standard dosing 100 mg three times daily
substance,measurement,value
pentosan polysulfate sodium [Elmiron],cases in which treatment has been shown to be effective,30%
